What all share (assay type): in vivo
Assay [1] concerns Cabbage Looper (Trichoplusia ni) ("CL"), second instar larvae. As to the kind of experiment: Bioassay on cabbage looper (CL), 128-well diet tray assay. The conditions noted are these: Trichoplusia ni. An outline of the steps:
(§1)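 Sealed trays, 25° C., 14:10 light:dark, 5–7 d. Per-well % mortality recorded, mean of eight wells reported.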

For assay [2], the system named is Beet Armyworm (Spodoptera exigua) ("BAW"), second instar larvae. As to the kind of experiment: Bioassay on beet armyworm (BAW), 128-well diet tray assay. The following applies: Spodoptera exigua. The gist of the method:
as §1

Assay [3] concerns Green Peach Aphid ("GPA") (Myzus persicae), wingless adult and nymph stages. As to the kind of experiment: Bioassay on green peach aphid (GPA), foliar spray on infested cabbage seedlings. The following applies: Myzus persicae, foliar, 72 h. Here is the method:
Certain molecules disclosed in this document were tested against GPA using procedures described in the following example. In the reporting of the results, the “GPA Rating Table” was used (See Table Section).
Cabbage seedlings grown in 3-inch pots, with 2-3 small (3-5 cm) true leaves, were used as test substrate. The seedlings were infested with 20-50 GPA (wingless adult and nymph stages) one day prior to chemical application. Four pots with individual seedlings were used for each treatment. Test compounds (2 mg) were dissolved in 2 mL of acetone/methanol (1:1) solvent, forming stock solutions of 1000 ppm test compound. […] A hand-held aspirator-type sprayer was used for spraying a solution to both sides of […] leaves until runoff. Reference plants (solvent check) were sprayed with the diluent only containing 20% by volume of acetone/methanol (1:1) solvent. Treated plants were held in a holding room for three days at approximately 25° C. and ambient relative humidity (RH) prior to grading. Evaluation was conducted by counting the number of live aphids per plant under a microscope.
Corrected % Control=100*(X−Y)/X • where • X=No. of live aphids on solvent check plants and • Y=No. of live aphids on treated plants
The results are indicated in the table entitled “Table ABC: Biological Results” (See Table Section).

[4] abbreviates: read-out: CL (Biological Results, rating).
Where [5] appears, read: read-out: BAW (Biological Results, rating).
[6] abbreviates: read-out: GPA (Biological Results, rating).

The values below come from patent US20230077362A1 (CORTEVA AGRISCIENCE LLC, priority 2019, published 2023).

Where two headings read alike, the source gives them in different places.

`CCOC(C)c1ccc(C)cc1N1C(=O)CS/C1=N\C(=O)Nc1ccc(-c2ncn(-c3ccc(SC(F)(F)F)cc3)n2)cc1F` (stereo not drawn) [Compound J230, (Z)-1-(3-(2-(1-Ethoxyethyl)-5-methylphenyl)-4-oxothiazolidin-2-ylidene)-3-(2-fluoro-4-(1-(4-((trifluoromethyl)thio)phenyl)-1H-1,2,4-triazol-3-yl)phenyl)urea]: the pest or weed control at 50 µg/cm2 in assay [1] (setting [4]) and in assay [2] (setting [5]) was 50 to 100% throughout. Moreover, in assay [3] (setting [6]), the pest or weed control at 200 µg/mL fell in the range of 0 to 80%.

In the case of `COc1ccc(C(C)C)c(N2C(=O)CS/C2=N\C(=O)Nc2ccc(-c3ncn(-c4cccc(OC(F)(F)F)c4)n3)cc2)c1` [Compound J328, (Z)-1-(3-(2-Isopropyl-5-methoxyphenyl)-4-oxothiazolidin-2-ylidene)-3-(4-(1-(3-(trifluoromethoxy)phenyl)-1H-1,2,4-triazol-3-yl)phenyl)urea], the pest or weed control at 50 µg/cm2 in assay [1] (setting [4]) and in assay [2] (setting [5]) was 50 to 100% throughout. For the same compound, the pest or weed control at 200 µg/mL in assay [3] (setting [6]) was 0 to 80%.

With `Cc1ccc(COCC(F)(F)F)c(N2C(=O)CS/C2=N\C(=O)Nc2ccc(-c3cn(-c4ccc(S(=O)(=O)C(F)(F)F)cc4)cn3)cc2F)c1` [Compound J647, (Z)-1-(2-Fluoro-4-(1-(4-((trifluoromethyl)sulfonyl)phenyl)-1H-imidazol-4-yl)phenyl)-3-(3-(5-methyl-2-((2,2,2-trifluoroethoxy)methyl)phenyl)-4-oxothiazolidin-2-ylidene)urea], the pest or weed control at 50 µg/cm2 in assay [1] (read-out: CL rating) and in assay [2] (read-out: BAW rating) was 50 to 100% in each case. Moreover, the pest or weed control at 200 µg/mL in assay [3] (read-out: GPA rating) lay in the range of 0 to 80%.

As for `CC(C)c1ccc(N(C)C)cc1N1C(=O)CS/C1=N\C(=O)Nc1ccc(-c2cn(-c3ccc(S(=O)(=O)C(F)(F)F)cc3)cn2)cc1F` [Compound J650, (Z)-1-(3-(5-(Dimethylamino)-2-isopropylphenyl)-4-oxothiazolidin-2-ylidene)-3-(2-fluoro-4-(1-(4-((trifluoromethyl)sulfonyl)phenyl)-1H-imidazol-4-yl)phenyl)urea], the pest or weed control at 50 µg/cm2 in assay [1] (read-out: CL rating) and in assay [2] (read-out: BAW rating) was 50 to 100% each time. Moreover, the pest or weed control at 200 µg/mL in assay [3] (read-out: GPA rating) fell in the range of 0 to 80%.

Turning to `Cc1ccc(C(C)C)c(N2C(=O)CS/C2=N\C(=O)Nc2ccc(-c3ncn(-c4ccc(C#N)cc4)n3)cc2F)c1` [Compound J287, (Z)-1-(4-(1-(4-Cyanophenyl)-1H-1,2,4-triazol-3-yl)-2-fluorophenyl)-3-(3-(2-isopropyl-5-methylphenyl)-4-oxothiazolidin-2-ylidene)urea], the pest or weed control at 50 µg/cm2 in assay [1] (setting [4]) and in assay [2] (setting [5]) was 50 to 100% in each case. In assay [3] (setting [6]), the pest or weed control at 200 µg/mL is 0 to 80%.

Take `Cc1ccc(OCCC(F)(F)F)c(N2C(=O)CS/C2=N\C(=O)Nc2ccc(-c3ncn(-c4cccc(C(F)(F)F)c4)n3)cc2)c1` [Compound J326, (Z)-1-(3-(5-Methyl-2-(3,3,3-trifluoropropoxy)phenyl)-4-oxothiazolidin-2-ylidene)-3-(4-(1-(3-(trifluoromethyl)phenyl)-1H-1,2,4-triazol-3-yl)phenyl)urea]: the pest or weed control at 50 µg/cm2 in assay [1] (setting [4]) and in assay [2] (setting [5]) was 50 to 100% in each case. Moreover, the pest or weed control at 200 µg/mL in assay [3] (setting [6]) was 0 to 80%.

For the compound `Cc1ccc(OCCC(F)(F)F)c(N2C(=O)CS/C2=N\C(=O)Nc2ccc(-c3ncn(-c4cccc(C(F)(F)F)c4)n3)cc2F)c1` [Compound J142, (Z)-1-(2-Fluoro-4-(1-(3-(trifluoromethyl)phenyl)-1H-1,2,4-triazol-3-yl)phenyl)-3-(3-(5-methyl-2-(3,3,3-trifluoropropoxy)phenyl)-4-oxothiazolidin-2-ylidene)urea], the pest or weed control at 50 µg/cm2 in assay [1] (setting [4]) and in assay [2] (setting [5]) was 50 to 100% each time. In assay [3] (setting [6]), the pest or weed control at 200 µg/mL lay within 0 to 80%.

As to `Cc1ccc(COCC(F)(F)F)c(N2C(=O)CS/C2=N\C(=O)Nc2ccc(-c3ncn(-c4ccc(OC(F)(F)F)cc4)n3)cc2Cl)c1` [Compound J194, (Z)-1-(2-Chloro-4-(1-(4-(trifluoromethoxy)phenyl)-1H-1,2,4-triazol-3-yl)phenyl)-3-(3-(5-methyl-2-((2,2,2-trifluoroethoxy)methyl)phenyl)-4-oxothiazolidin-2-ylidene)urea], the pest or weed control at 50 µg/cm2 in assay [1] (setting [4]) and in assay [2] (setting [5]) was 50 to 100% in each case. The pest or weed control at 200 µg/mL in assay [3] (setting [6]) lay within 0 to 80%.

`Cc1ccc(C(C)C)c(N2C(=O)CS/C2=N\C(=O)Nc2ccc(-c3ncn(-c4ccc(SC(F)(F)F)cc4)n3)cc2Cl)c1` [Compound J231, (Z)-1-(2-Chloro-4-(1-(4-((trifluoromethyl)thio)phenyl)-1H-1,2,4-triazol-3-yl)phenyl)-3-(3-(2-isopropyl-5-methylphenyl)-4-oxothiazolidin-2-ylidene)urea]: the pest or weed control at 50 µg/cm2 in assay [1] (setting [4]) and in assay [2] (setting [5]) was 50 to 100% each time. The pest or weed control at 200 µg/mL in assay [3] (setting [6]) lay in the range of 0 to 80%.

In the case of `Cc1ccc(COCC(F)(F)F)c(N2C(=O)CS/C2=N\C(=O)Nc2ccc(-c3ncn(-c4ccc(C(F)F)cc4)n3)cc2F)c1` [Compound J686, (Z)-1-(4-(1-(4-(Difluoromethyl)phenyl)-1H-1,2,4-triazol-3-yl)-2-fluorophenyl)-3-(3-(5-methyl-2-((2,2,2-trifluoroethoxy)methyl)phenyl)-4-oxothiazolidin-2-ylidene)urea], the pest or weed control at 50 µg/cm2 in assay [1] (read-out: CL rating) and in assay [2] (read-out: BAW rating) was 50 to 100% throughout. The pest or weed control at 200 µg/mL in assay [3] (read-out: GPA rating) fell in the range of 0 to 80%.

Consider `Cc1ccc(C(C)C)c(N2C(=O)CS/C2=N\C(=O)Nc2ccc(-c3ncn(-c4cccc(OC(F)(F)F)c4)n3)cc2)c1` [Compound J327, (Z)-1-(3-(2-Isopropyl-5-methylphenyl)-4-oxothiazolidin-2-ylidene)-3-(4-(1-(3-(trifluoromethoxy)phenyl)-1H-1,2,4-triazol-3-yl)phenyl)urea], for which the pest or weed control at 50 µg/cm2 in assay [1] (setting [4]) and in assay [2] (setting [5]) was 50 to 100% each time. Also, in assay [3] (setting [6]), the pest or weed control at 200 µg/mL lay within 0 to 80%.

With `Cc1cc(-c2ncn(-c3ccc(OC(F)(F)F)cc3)n2)ccc1NC(=O)/N=C1\SCC(=O)N1c1ccc(N(C)C)cc1C(C)C` [Compound J113, (Z)-1-(3-(4-(Dimethylamino)-2-isopropylphenyl)-4-oxothiazolidin-2-ylidene)-3-(2-methyl-4-(1-(4-(trifluoromethoxy)phenyl)-1H-1,2,4-triazol-3-yl)phenyl)urea], the pest or weed control at 50 µg/cm2 in assay [1] (setting [4]) and in assay [2] (setting [5]) was 50 to 100% in each case. The pest or weed control at 200 µg/mL in assay [3] (setting [6]) was in the range of 0 to 80%.

On to `CCN(C(C)=O)c1ccc(C(C)C)c(N2C(=O)CS/C2=N\C(=O)Nc2ccc(-c3ncn(-c4ccc(OC(F)(F)F)cc4)n3)cc2F)c1` [Compound J189, (Z)-N-Ethyl-N-(3-(2-(((2-fluoro-4-(1-(4-(trifluoromethoxy)phenyl)-1H-1,2,4-triazol-3-yl)phenyl)carbamoyl)imino)-4-oxothiazolidin-3-yl)-4-isopropylphenyl)acetamide], for which the pest or weed control at 50 µg/cm2 in assay [1] (setting [4]) and in assay [2] (setting [5]) was 50 to 100% throughout. The pest or weed control at 200 µg/mL in assay [3] (setting [6]) fell in the range of 0 to 80%.

Take `Cc1ccc(C(C)C)c(N2C(=O)CS/C2=N\C(=O)Nc2ccc(-c3ncn(-c4cccc(OC(F)(F)F)c4)n3)cc2F)c1` [Compound J143, (Z)-1-(2-Fluoro-4-(1-(3-(trifluoromethoxy)phenyl)-1H-1,2,4-triazol-3-yl)phenyl)-3-(3-(2-isopropyl-5-methylphenyl)-4-oxothiazolidin-2-ylidene)urea]: the pest or weed control at 50 µg/cm2 in assay [1] (setting [4]) and in assay [2] (setting [5]) was 50 to 100% each time. The pest or weed control at 200 µg/mL in assay [3] (setting [6]) fell in the range of 0 to 80%.

As to `CNc1ccc(C(C)C)c(N2C(=O)CS/C2=N\C(=O)Nc2ccc(-c3ncn(-c4ccc(OC(F)(F)F)cc4)n3)cc2C)c1` [Compound J126, (Z)-1-(3-(2-Isopropyl-5-(methylamino)phenyl)-4-oxothiazolidin-2-ylidene)-3-(2-methyl-4-(1-(4-(trifluoromethoxy)phenyl)-1H-1,2,4-triazol-3-yl)phenyl)urea], the pest or weed control at 50 µg/cm2 in assay [1] (setting [4]) and in assay [2] (setting [5]) was 50 to 100% in each case. Also, in assay [3] (setting [6]), the pest or weed control at 200 µg/mL lay within 0 to 80%.

For the compound `Cc1ccc(COCc2ccc(F)cc2)c(N2C(=O)CS/C2=N\C(=O)Nc2ccc(-c3ncn(-c4ccc(OC(F)(F)F)cc4)n3)cc2F)c1` [Compound J574, (Z)-1-(2-Fluoro-4-(1-(4-(trifluoromethoxy)phenyl)-1H-1,2,4-triazol-3-yl)phenyl)-3-(3-(2-(((4-fluorobenzyl)oxy)methyl)-5-methylphenyl)-4-oxothiazolidin-2-ylidene)urea], the pest or weed control at 50 µg/cm2 in assay [1] (read-out: CL rating) and in assay [2] (read-out: BAW rating) was 50 to 100% in each case. In addition, the pest or weed control at 200 µg/mL in assay [3] (read-out: GPA rating) fell in the range of 0 to 80%.
